Structures can show the parent of a compound that is named as a salt.
Molecular target: IRAK-4 (Homo sapiens (Human), UniProt Q9NWZ3)
Experiment: In vitro IRAK-4 kinase assay
Type: biochemical
Details: purified recombinant IRAK-4, 50 uM ATP, 33P peptide phosphorylation
Description: Purified recombinant IRAK-4 protein was incubated with 250 uM synthetic peptide ([…]) in 30 ul of kinase buffer including (20 mM MOPS pH7.2, 25 mM beta glycerol phosphate, 5 mM EGTA, 1 mM sodium orthovanadate, 1 mM DTT, 50 uM ATP, 20 mM MgCl2, 10 uCi γ-^33P, 0.1% BSA) for the indicated time. For purified recombinant IRAK-1 protein kinase assay, 50 uM ATP was used. A 25 ul aliquot of the reaction mixture was transferred on to p81 phosphocellulose squares (Upstate Biotechnology, Lake Placid, N.Y.). The assay squares were washed three times with 0.75% phosphoric acid and once with acetone. Enzyme activity was measured by determining the bound radioactivity by liquid scintillation counting.

Sequence of IRAK-4 (Q9NWZ3 whole entry, species assumed): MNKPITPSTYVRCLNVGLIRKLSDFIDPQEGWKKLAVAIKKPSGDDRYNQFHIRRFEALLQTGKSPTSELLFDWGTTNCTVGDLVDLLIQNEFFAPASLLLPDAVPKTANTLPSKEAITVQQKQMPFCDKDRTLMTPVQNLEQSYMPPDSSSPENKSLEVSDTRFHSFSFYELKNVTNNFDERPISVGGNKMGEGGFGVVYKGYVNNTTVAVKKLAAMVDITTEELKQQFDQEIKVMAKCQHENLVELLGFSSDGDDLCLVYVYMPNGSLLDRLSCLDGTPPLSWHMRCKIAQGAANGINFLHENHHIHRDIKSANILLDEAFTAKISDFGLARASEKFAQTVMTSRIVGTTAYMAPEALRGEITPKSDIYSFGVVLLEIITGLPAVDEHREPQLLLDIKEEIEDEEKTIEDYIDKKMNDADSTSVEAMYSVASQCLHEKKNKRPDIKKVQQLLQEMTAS

Structure (SMILES) | IC50 [nM]
COc1ccc(Cl)cc1NC(=O)c1csc2cnc(NCCCO)nc12 [Example 126, 2-(3-Hydroxy-propylamino)-thieno[3,2-d]pyrimidine-7-carboxylic acid (5-chloro-2-methoxy-phenyl)-amide] | 2060
COc1ccc(Br)cc1NC(=O)c1cnn2cccnc12 [Example 127, Pyrazolo[1,5-alpha]pyrimidine-3-carboxylic acid (5-bromo-2-methoxy-phenyl)-amide] | 2140
COc1ccc(Cl)cc1NC(=O)c1csc2cncnc12 [Example 128, Thieno[3,2-d]pyrimidine-7-carboxylic acid (5-chloro-2-methoxy-phenyl)-amide] | 2200
CN(CCO)c1ccc(Cl)cc1NC(=O)c1cnn2cccnc12 [Example 129, Pyrazolo[1,5-alpha]pyrimidine-3-carboxylic acid {5-chloro-2-[(2-hydroxy-ethyl)-methyl-amino]-phenyl}-amide] | 2200
O=C(Nc1cc(Cl)ccc1Oc1ccc(O)cc1)c1cnn2cccnc12 [Example 130, Pyrazolo[1,5-alpha]pyrimidine-3-carboxylic acid [5-chloro-2-(4-hydroxy-phenoxy)-phenyl]-amide] | 2220
CC[C@@H](CO)Nc1ncc2scc(C(=O)Nc3cc(Cl)ccc3OC)c2n1 [Example 131, 2-(1-Hydroxymethyl-propylamino)-thieno[3,2-d]pyrimidine-7-carboxylic acid (5-chloro-2-methoxy-phenyl)-amide] | 2230
COc1ccc(Cl)cc1NC(=O)c1csc2cnc(NCCO)nc12 [Example 132, 2-(2-Hydroxy-ethylamino)-thieno[3,2-d]pyrimidine-7-carboxylic acid (5-chloro-2-methoxy-phenyl)-amide] | 2240
O=C(Nc1cc(Cl)ccc1OC1CCC(O)CC1)c1cnn2cc(CO)cnc12 (stereo not drawn) [Example 133, 6-Hydroxymethyl-pyrazolo[1,5-alpha]pyrimidine-3-carboxylic acid [5-chloro-2-(4-hydroxy-cyclohexyloxy)-phenyl]-amide] | 2250
COc1cc(C(N)=O)ccc1NC(=O)c1cnn2cccnc12 [Example 134, Pyrazolo[1,5-alpha]pyrimidine-3-carboxylic acid (4-carbamoyl-2-methoxy-phenyl)-amide] | 2260
CC(C)COc1ccc(Cl)cc1NC(=O)c1cnn2cccnc12 [Example 135, Pyrazolo[1,5-alpha]pyrimidine-3-carboxylic acid (5-chloro-2-isobutoxy-phenyl)-amide] | 2280
O=C(Nc1nc2ccccc2n1CCCO)c1csc2cncnc12 [Example 136, Thieno[3,2-d]pyrimidine-7-carboxylic acid [1-(3-hydroxy-propyl)-1H-benzoimidazol-2-yl]-amide] | 2310
O=C(Nc1cc(Cl)ccc1OC[C@@H](O)CO)c1cnn2cccnc12 [Example 137, Pyrazolo[1,5-alpha]pyrimidine-3-carboxylic acid [5-chloro-2-(2,3-dihydroxy-propoxy)-phenyl]-amide] | 2310
COCCCOc1ccc(Cl)cc1NC(=O)c1cnn2cccnc12 [Example 138, Pyrazolo[1,5-alpha]pyrimidine-3-carboxylic acid [5-chloro-2-(3-methoxy-propoxy)-phenyl]-amide] | 2420
O=C(Nc1cc(Cl)ccc1OCCCO)c1csc2cncnc12 [Example 139, Thieno[3,2-d]pyrimidine-7-carboxylic acid [5-chloro-2-(3-hydroxy-propoxy)-phenyl]-amide] | 2450
O=C(Nc1cc(Cl)ccc1OCc1cccc(O)c1)c1cnn2cccnc12 [Example 141, Pyrazolo[1,5-alpha]pyrimidine-3-carboxylic acid [5-chloro-2-(3-hydroxy-benzyloxy)-phenyl]-amide] | 2630
COc1cc(OC)c(NC(=O)c2cnn3cccnc23)cc1Cl [Example 142, Pyrazolo[1,5-alpha]pyrimidine-3-carboxylic acid (5-chloro-2,4-dimethoxy-phenyl)-amide] | 2740
C=Cc1ccc(OC)c(NC(=O)c2cnn3cccnc23)c1 [Example 143, Pyrazolo[1,5-alpha]pyrimidine-3-carboxylic acid (2-methoxy-5-vinyl-phenyl)-amide] | 2750
O=C(Nc1cccc(NCCCO)c1N1CCCCC1)c1cnn2cccnc12 [Example 144, Pyrazolo[1,5-alpha]pyrimidine-3-carboxylic acid [3-(3-hydroxy-propylamino)-2-piperidin-1-yl-phenyl]-amide] | 2850
O=C(Nc1cc(Cl)ccc1CCCCO)c1cnn2cccnc12 [Example 145, Pyrazolo[1,5-alpha]pyrimidine-3-carboxylic acid [5-chloro-2-(4-hydroxy-butyl)-phenyl]-amide] | 2950
COc1cc(C(=O)NCCO)ccc1NC(=O)c1cnn2cccnc12 [Example 146, Pyrazolo[1,5-alpha]pyrimidine-3-carboxylic acid [4-(2-hydroxy-ethylcarbamoyl)-2-methoxy-phenyl]-amide] | 2960

Structure (SMILES) | IC50 [nM]
O=C(Nc1cc(Cl)ccc1OC1CCC(O)CC1)c1cnn2cc(CCO)cnc12 (stereo not drawn) [Example 147, 6-(2-Hydroxy-ethyl)-pyrazolo[1,5-alpha]pyrimidine-3-carboxylic acid [5-chloro-2-(4-hydroxy-cyclohexyloxy)-phenyl]-amide] | 3040
CC(N)C1CCN(c2ccc(Cl)cc2NC(=O)c2cnn3cccnc23)C1 (stereo not drawn) [Example 148, Pyrazolo[1,5-alpha]pyrimidine-3-carboxylic acid {2-[3-(1-amino-ethyl)-pyrrolidin-1-yl]-5-chloro-phenyl}-amide hydrochloride] | 3080
CN(CCCO)c1ccc(Cl)cc1NC(=O)c1cnn2cccnc12 [Example 149, Pyrazolo[1,5-alpha]pyrimidine-3-carboxylic acid {5-chloro-2-[(3-hydroxy-propyl)-methyl-amino]-phenyl}-amide] | 3400
COc1ccc(Cl)cc1NC(=O)c1csc2cccnc12 [Example 150, Thieno[3,2-beta]pyridine-3-carboxylic acid (5-chloro-2-methoxy-phenyl)-amide] | 3460
CNCC1CCN(c2ccc(Cl)cc2NC(=O)c2csc3cncnc23)CC1 [Example 151, Thieno[3,2-d]pyrimidine-7-carboxylic acid [5-chloro-2-(4-methylaminomethyl-piperidin-1-yl)-phenyl]-amide] | 3540
COc1ccc(/C=C/CO)cc1NC(=O)c1cnn2cccnc12 [Example 152, Pyrazolo[1,5-alpha]pyrimidine-3-carboxylic acid [5-(3-hydroxy-propenyl)-2-methoxy-phenyl]-amide] | 3700
COc1ccc(C)cc1NC(=O)c1cnn2cccnc12 [Example 153, Pyrazolo[1,5-alpha]pyrimidine-3-carboxylic acid (2-methoxy-5-methyl-phenyl)-amide] | 3770
CCc1ccc(Cl)cc1NC(=O)c1cnn2cccnc12 [Example 154, Pyrazolo[1,5-alpha]pyrimidine-3-carboxylic acid (5-chloro-2-ethyl-phenyl)-amide] | 3800
O=C(Nc1cc(Cl)ccc1Oc1cccc(O)c1)c1cnn2cccnc12 [Example 156, Pyrazolo[1,5-alpha]pyrimidine-3-carboxylic acid [5-chloro-2-(3-hydroxy-phenoxy)-phenyl]-amide] | 4050
COc1ccc(Cl)cc1NC(=O)c1csc2cnc(N(C)CCO)nc12 [Example 157, 2-[(2-Hydroxy-ethyl)-methyl-amino]-thieno[3,2-d]pyrimidine-7-carboxylic acid (5-chloro-2-methoxy-phenyl)-amide] | 4130
COc1ccc(NC(=O)c2cnn3cccnc23)c(OC)c1 [Example 158, Pyrazolo[1,5-alpha]pyrimidine-3-carboxylic acid (2,4-dimethoxy-phenyl)-amide] | 4170
COC(=O)COc1ccc(Cl)cc1NC(=O)c1cnn2cccnc12 [Example 160, {4-Chloro-2-[(pyrazolo[1,5-alpha]pyrimidine-3-carbonyl)-amino]-phenoxy}-acetic acid methyl ester] | 4300
O=C(Nc1cc(Cl)ccc1Oc1ccccc1)c1cnn2cccnc12 [Example 161, Pyrazolo[1,5-alpha]pyrimidine-3-carboxylic acid (5-chloro-2-phenoxy-phenyl)-amide] | 4650
COc1ccc(Cl)cc1NC(=O)c1csc2ccc(NCCO)nc12 [Example 162, 5-(2-Hydroxy-ethylamino)-thieno[3,2-beta]pyridine-3-carboxylic acid (5-chloro-2-methoxy-phenyl)-amide] | 4660
O=C(Nc1cc(Cl)ccc1OC[C@H](O)CO)c1cnn2cccnc12 [Example 163, Pyrazolo[1,5-alpha]pyrimidine-3-carboxylic acid [5-chloro-2-(2,3-dihydroxy-propoxy)-phenyl]-amide] | 4660
O=C(Nc1cc(Cl)ccc1N1CCCCC1CO)c1cnn2cccnc12 (stereo not drawn) [Example 164, Pyrazolo[1,5-alpha]pyrimidine-3-carboxylic acid [5-chloro-2-(2-hydroxymethyl-piperidin-1-yl)-phenyl]-amide] | 4850
COc1cc(-c2ccccc2)ccc1NC(=O)c1cnn2cccnc12 [Example 165, Pyrazolo[1,5-alpha]pyrimidine-3-carboxylic acid (3-methoxy-biphenyl-4-yl)-amide] | 5200
CCc1ccc(OC)c(NC(=O)c2cnn3cccnc23)c1 [Example 166, Pyrazolo[1,5-alpha]pyrimidine-3-carboxylic acid (5-ethyl-2-methoxy-phenyl)-amide] | 5880
COc1cc(-c2ccccc2)c(C)cc1NC(=O)c1cnn2cccnc12 [Example 167, Pyrazolo[1,5-alpha]pyrimidine-3-carboxylic acid (5-methoxy-2-methyl-biphenyl-4-yl)-amide] | 5940

From patent US9255110B2 (Hoffmann-La Roche Inc., priority 2010, dated 2016)
